Test results from patent EP4745135A1 (Gluetacs Therapeutics (Shanghai) Co., Ltd., priority 2023, dated 2025).

What was measured:
[1] = target: T1, IKZF1 (Homo sapiens, UniProt Q13422+Q96SW2); experiment: Western blot, degradation of substrate protein in hPBMCs; format: cell-based; details: 24 hours treatment, compounds at 50 nM and 500 nM (concentration behind the class not stated)
T1 construct: effects of the compounds of the present disclosure on the expression of target proteins in cells; endogenous in cells; host or cells: human PBMCs (Milecell Biotechnologies)

[2] = target: T2, WEE1 (Homo sapiens, UniProt P30291+Q96SW2); experiment: as above; format: cell-based; details: 24 hours treatment, compounds at 50 nM and 500 nM (concentration behind the class not stated)
T2 construct: effects of the compounds of the present disclosure on the expression of target proteins in cells; endogenous in cells; host or cells: human PBMCs (Milecell Biotechnologies)

[3] = target: T3, IKZF3 (Homo sapiens, UniProt Q96SW2+Q9UKT9); experiment: as above; format: cell-based; details: 24 hours treatment, compounds at 50 nM and 500 nM (concentration behind the class not stated)
T3 construct: effects of the compounds of the present disclosure on the expression of target proteins in cells; endogenous in cells; host or cells: human PBMCs (Milecell Biotechnologies)

[4] = target: T4, IKZF2 (Homo sapiens, UniProt Q96SW2+Q9UKS7); experiment: as above; format: cell-based; details: 24 hours treatment, compounds at 50 nM and 500 nM (concentration behind the class not stated)
T4 construct: effects of the compounds of the present disclosure on the expression of target proteins in cells; endogenous in cells; host or cells: human PBMCs (Milecell Biotechnologies)

[5] = target: T5, CK1α (Homo sapiens, UniProt P48729+Q96SW2); experiment: as above; format: cell-based; details: 24 hours treatment, compounds at 50 nM and 500 nM (concentration behind the class not stated)
T5 construct: effects of the compounds of the present disclosure on the expression of target proteins in cells; endogenous in cells; host or cells: human PBMCs (Milecell Biotechnologies)

[6] = target: T6, human Cereblon WT GST-tagged protein (Homo sapiens, UniProt Q96SW2); experiment: CRBN-binding affinity, HTRF (CEREBLON BINDING kit); details: for inhibition at 0.5 µM: read-out: Inhibition Rate at 0.5 µM (%); for inhibition at 2 µM: read-out: Inhibition Rate at 2 µM (%)
T6 construct: purchased CISBIO 64BDCRBNPEH

[7] = system: GSPT1; experiment: Western blot, degradation of substrate protein in hPBMCs; format: cell-based, Human; details: 24 hours treatment, compounds at 50 nM and 500 nM (concentration behind the class not stated)

T3 sequence (Q9UKT9 whole entry): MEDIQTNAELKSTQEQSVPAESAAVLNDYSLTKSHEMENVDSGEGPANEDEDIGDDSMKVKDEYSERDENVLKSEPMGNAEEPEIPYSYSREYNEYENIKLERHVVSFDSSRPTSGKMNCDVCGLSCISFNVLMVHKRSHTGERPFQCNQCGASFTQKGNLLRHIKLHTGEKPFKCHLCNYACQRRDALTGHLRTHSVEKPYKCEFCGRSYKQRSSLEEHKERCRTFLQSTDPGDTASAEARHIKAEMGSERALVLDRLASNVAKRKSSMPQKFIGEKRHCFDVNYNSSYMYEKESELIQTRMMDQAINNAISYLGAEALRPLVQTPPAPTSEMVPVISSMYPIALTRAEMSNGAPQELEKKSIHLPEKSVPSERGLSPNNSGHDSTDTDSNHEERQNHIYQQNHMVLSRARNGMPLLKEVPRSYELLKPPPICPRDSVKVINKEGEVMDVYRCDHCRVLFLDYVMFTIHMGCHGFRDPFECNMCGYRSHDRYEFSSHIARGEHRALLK
T3 sequence (Q96SW2 whole entry): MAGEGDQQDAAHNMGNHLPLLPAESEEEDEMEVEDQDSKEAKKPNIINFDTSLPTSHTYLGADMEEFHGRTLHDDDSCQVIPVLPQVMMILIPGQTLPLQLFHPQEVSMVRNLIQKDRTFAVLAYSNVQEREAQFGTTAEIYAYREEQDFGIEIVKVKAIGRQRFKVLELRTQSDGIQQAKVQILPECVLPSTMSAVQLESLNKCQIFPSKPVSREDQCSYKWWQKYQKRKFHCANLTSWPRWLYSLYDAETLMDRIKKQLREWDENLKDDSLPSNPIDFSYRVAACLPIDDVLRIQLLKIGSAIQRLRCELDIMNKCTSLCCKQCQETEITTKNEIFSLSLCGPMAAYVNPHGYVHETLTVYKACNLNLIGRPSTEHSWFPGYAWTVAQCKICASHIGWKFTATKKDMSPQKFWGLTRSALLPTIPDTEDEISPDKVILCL
T3 sequence (Q16531 whole entry partner): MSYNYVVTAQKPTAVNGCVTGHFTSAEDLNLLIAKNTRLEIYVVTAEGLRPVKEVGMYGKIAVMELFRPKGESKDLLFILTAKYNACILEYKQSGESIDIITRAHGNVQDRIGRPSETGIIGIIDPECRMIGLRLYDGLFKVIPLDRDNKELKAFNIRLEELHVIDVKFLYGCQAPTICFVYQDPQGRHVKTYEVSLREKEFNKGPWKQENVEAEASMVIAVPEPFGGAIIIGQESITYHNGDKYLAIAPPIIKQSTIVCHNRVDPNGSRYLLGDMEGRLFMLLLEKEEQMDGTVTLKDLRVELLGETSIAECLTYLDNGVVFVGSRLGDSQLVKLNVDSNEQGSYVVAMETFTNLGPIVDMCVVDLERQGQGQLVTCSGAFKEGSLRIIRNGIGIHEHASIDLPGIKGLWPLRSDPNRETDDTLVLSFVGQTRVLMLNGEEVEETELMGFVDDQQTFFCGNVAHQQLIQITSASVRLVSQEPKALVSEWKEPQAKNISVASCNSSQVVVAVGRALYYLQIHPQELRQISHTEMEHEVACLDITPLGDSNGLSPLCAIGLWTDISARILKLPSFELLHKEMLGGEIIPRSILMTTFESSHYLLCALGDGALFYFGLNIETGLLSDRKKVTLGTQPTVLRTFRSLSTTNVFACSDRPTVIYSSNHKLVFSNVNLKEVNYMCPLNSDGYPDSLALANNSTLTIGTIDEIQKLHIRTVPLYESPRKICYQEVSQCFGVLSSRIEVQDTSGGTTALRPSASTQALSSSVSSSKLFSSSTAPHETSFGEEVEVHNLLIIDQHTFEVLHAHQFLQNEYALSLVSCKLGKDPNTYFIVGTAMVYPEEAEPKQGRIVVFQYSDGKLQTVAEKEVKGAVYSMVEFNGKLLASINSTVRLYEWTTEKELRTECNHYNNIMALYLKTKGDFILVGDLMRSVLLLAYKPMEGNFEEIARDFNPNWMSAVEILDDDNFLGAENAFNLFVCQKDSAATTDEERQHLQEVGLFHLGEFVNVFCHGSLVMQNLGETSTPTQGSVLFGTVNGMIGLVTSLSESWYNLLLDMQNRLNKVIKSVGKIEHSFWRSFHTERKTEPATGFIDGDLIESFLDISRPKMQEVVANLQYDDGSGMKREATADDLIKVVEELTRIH
T5 sequence (P48729 whole entry): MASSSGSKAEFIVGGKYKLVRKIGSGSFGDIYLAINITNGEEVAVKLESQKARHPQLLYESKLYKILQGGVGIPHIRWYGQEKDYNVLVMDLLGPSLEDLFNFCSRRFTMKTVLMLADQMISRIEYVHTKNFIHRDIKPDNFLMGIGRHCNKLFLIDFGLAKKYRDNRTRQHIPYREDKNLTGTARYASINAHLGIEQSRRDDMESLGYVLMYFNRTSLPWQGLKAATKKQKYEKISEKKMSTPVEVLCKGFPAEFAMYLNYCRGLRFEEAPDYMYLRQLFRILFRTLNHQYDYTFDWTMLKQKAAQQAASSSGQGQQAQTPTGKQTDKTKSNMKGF
T5 sequence (Q96SW2 whole entry): as the sequence (Q96SW2 whole entry) above
T5 sequence (Q16531 whole entry partner): as the sequence (Q16531 whole entry partner) above
T2 sequence (P30291 whole entry): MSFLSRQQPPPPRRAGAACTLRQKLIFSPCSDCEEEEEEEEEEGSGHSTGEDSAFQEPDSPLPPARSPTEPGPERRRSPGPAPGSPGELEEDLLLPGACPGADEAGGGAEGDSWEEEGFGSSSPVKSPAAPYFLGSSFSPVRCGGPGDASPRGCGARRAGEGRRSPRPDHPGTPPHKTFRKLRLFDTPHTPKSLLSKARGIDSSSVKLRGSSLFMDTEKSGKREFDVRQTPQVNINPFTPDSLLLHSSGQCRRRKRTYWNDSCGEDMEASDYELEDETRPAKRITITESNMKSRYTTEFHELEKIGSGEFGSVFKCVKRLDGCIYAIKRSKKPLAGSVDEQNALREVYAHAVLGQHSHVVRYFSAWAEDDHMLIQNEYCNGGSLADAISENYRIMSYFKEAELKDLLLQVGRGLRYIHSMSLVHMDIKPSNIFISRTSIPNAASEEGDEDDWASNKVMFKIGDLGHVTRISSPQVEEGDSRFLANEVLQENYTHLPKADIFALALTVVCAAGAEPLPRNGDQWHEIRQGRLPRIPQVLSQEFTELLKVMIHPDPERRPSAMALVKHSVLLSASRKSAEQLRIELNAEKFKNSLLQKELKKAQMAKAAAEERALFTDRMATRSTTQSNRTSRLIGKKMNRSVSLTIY
T2 sequence (Q96SW2 whole entry): as the sequence (Q96SW2 whole entry) above
T2 sequence (Q16531 whole entry partner): as the sequence (Q16531 whole entry partner) above
T1 sequence (Q13422 whole entry): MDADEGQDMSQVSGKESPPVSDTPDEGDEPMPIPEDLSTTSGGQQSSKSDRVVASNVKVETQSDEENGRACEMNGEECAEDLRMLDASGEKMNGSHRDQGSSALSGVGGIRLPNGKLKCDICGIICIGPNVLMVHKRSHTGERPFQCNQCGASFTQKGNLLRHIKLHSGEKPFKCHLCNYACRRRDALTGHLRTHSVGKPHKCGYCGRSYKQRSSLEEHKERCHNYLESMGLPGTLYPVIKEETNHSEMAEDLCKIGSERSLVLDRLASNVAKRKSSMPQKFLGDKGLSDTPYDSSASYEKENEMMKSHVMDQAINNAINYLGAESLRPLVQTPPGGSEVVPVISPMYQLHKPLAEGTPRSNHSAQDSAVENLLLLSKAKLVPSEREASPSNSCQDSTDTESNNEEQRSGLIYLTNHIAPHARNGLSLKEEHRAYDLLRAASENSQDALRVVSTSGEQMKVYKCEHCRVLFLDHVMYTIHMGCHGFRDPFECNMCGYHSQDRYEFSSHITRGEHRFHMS
T1 sequence (Q96SW2 whole entry): as the sequence (Q96SW2 whole entry) above
T1 sequence (Q16531 whole entry partner): as the sequence (Q16531 whole entry partner) above
T6 sequence (Q96SW2 whole entry): as the sequence (Q96SW2 whole entry) above
T4 sequence (Q9UKS7 whole entry): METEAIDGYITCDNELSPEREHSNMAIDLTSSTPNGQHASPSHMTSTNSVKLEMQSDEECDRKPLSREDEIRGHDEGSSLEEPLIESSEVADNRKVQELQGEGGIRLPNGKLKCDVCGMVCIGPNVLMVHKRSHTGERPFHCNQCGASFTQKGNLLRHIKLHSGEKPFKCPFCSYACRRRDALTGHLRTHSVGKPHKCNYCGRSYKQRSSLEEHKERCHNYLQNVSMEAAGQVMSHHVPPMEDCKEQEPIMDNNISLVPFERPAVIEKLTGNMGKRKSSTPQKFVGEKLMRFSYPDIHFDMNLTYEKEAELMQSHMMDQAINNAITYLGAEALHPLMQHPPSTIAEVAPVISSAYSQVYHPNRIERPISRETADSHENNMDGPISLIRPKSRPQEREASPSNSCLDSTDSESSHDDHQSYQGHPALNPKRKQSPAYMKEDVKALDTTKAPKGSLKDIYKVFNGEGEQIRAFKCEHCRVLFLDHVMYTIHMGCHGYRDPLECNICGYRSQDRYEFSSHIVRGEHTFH
T4 sequence (Q96SW2 whole entry): as the sequence (Q96SW2 whole entry) above
T4 sequence (Q16531 whole entry partner): as the sequence (Q16531 whole entry partner) above

inhibition at 0.5 µM [6] [%]	inhibition at 2 µM [6] [%]	Structure (SMILES)	IKZF 1 substrate protein remaining % [1]	Wee1 substrate protein remaining % [2]	IKZF3 substrate protein remaining % [3]	IKZF2 substrate protein remaining % [4]	CK1α substrate protein remaining % [5]	GSPT1 substrate protein remaining % [7]
60 to 80	80 to 100	O=C1CCC(N2Cc3cc(CN4CC=C(c5ncnc6scc(-c7ccccc7)c56)CC4)ccc3C2=S)C(=O)N1 (stereo not shown) [GT-09320, 3-(5-((4-(5-phenylthieno[2,3-d]pyrimidin-4-yl)-3,6-dihydropyridin-1(2H)-yl)methyl)-1-thioxoisoindolin-2-yl)piperidine-2,6-dione]	B (80%< substrate protein remaining %≤ 100%)	A (0% ≤ substrate protein remaining % ≤ 80%)	B (80%< substrate protein remaining %≤ 100%)	B (80%< substrate protein remaining %≤ 100%)	B (80%< substrate protein remaining %≤ 100%)	A (0% ≤ substrate protein remaining % ≤ 80%)
53 to 60	80 to 100	Cc1nc(C2=CCN(Cc3ccc4c(c3)CN(C3CCC(=O)NC3=O)C4=S)CC2)c2c(-c3ccccc3)csc2n1 (stereo not shown) [GT-09321, 3-(5-((4-(2-methyl-5-phenylthieno[2,3-d]pyrimidin-4-yl)-3,6-dihydropyridin-1(2H)-yl)methyl)-1-thioxoisoindolin-2-yl)piperidine-2,6-dione]	B (80%< substrate protein remaining %≤ 100%)	A (0% ≤ substrate protein remaining % ≤ 80%)	B (80%< substrate protein remaining %≤ 100%)	B (80%< substrate protein remaining %≤ 100%)	B (80%< substrate protein remaining %≤ 100%)	A (0% ≤ substrate protein remaining % ≤ 80%)
53 to 60	80 to 100	Cc1nc(C2=CCN(Cc3ccc4c(c3)CN(C3CCC(=O)NC3=O)C4=S)CC2)c2c3c(sc2n1)CCC3 (stereo not shown) [GT-09326, 3-(5-((4-(2-methyl-6,7-dihydro-5H-cyclopenta[4,5]thieno[2,3-d]pyrimidin-4-yl)-3,6-dihydropyridin-1(2H)-yl)methyl)-1-thioxoisoindolin-2-yl)piperidine-2,6-dione]	B (80%< substrate protein remaining %≤ 100%)	A (0% ≤ substrate protein remaining % ≤ 80%)	B (80%< substrate protein remaining %≤ 100%)	B (80%< substrate protein remaining %≤ 100%)	B (80%< substrate protein remaining %≤ 100%)	A (0% ≤ substrate protein remaining % ≤ 80%)
53 to 60	80 to 100	O=C1CCC(N2Cc3cc(CN4CCN(c5nc(Cl)nc6c5SCC6)CC4)ccc3C2=S)C(=O)N1 (stereo not shown) [GT-09328, 3-(5-((4-(2-chloro-6,7-dihydrothieno[3,2-d]pyrimidin-4-yl)piperazin-1-yl)methyl)-1-thioxoisoindolin-2-yl)piperidine-2,6-dione]	B (80%< substrate protein remaining %≤ 100%)	B (80%< substrate protein remaining %≤ 100%)	B (80%< substrate protein remaining %≤ 100%)	A (0% ≤ substrate protein remaining % ≤ 80%)	B (80%< substrate protein remaining %≤ 100%)	B (80%< substrate protein remaining %≤ 100%)
60 to 80	80 to 100	O=C1CCC(N2Cc3cc(CN4CCN(c5nc(N6CCOCC6)nc6ccsc56)CC4)ccc3C2=S)C(=O)N1 (stereo not shown) [GT-09333, 3-(5-((4-(2-morpholinothieno[3,2-d]pyrimidin-4-yl)piperazin-1-yl)methyl)-1-thioxoisoindolin-2-yl)piperidine-2,6-dione]	A (0% ≤ substrate protein remaining % ≤ 80%)	B (80%< substrate protein remaining %≤ 100%)	A (0% ≤ substrate protein remaining % ≤ 80%)	B (80%< substrate protein remaining %≤ 100%)	B (80%< substrate protein remaining %≤ 100%)	A (0% ≤ substrate protein remaining % ≤ 80%)
